In paper PMC6850446, “In vivo inactivation of glycosidases by conduritol B epoxide and cyclophellitol as revealed by activity‐based protein profiling” (The Febs Journal, 2019) one finds IC50 data, which are given here for 2 molecules.

Where two headings read alike, the source gives them in different places. Where only a bound is given, the exact number is not on record here.

In one assay the target is T1, GANAB (Homo sapiens, UniProt Q14697).
T1 construct: endogenous enzyme in HEK293T cells (GBA2-expressing line); beta subunit not mentioned
T1 sequence (Q14697 29-944): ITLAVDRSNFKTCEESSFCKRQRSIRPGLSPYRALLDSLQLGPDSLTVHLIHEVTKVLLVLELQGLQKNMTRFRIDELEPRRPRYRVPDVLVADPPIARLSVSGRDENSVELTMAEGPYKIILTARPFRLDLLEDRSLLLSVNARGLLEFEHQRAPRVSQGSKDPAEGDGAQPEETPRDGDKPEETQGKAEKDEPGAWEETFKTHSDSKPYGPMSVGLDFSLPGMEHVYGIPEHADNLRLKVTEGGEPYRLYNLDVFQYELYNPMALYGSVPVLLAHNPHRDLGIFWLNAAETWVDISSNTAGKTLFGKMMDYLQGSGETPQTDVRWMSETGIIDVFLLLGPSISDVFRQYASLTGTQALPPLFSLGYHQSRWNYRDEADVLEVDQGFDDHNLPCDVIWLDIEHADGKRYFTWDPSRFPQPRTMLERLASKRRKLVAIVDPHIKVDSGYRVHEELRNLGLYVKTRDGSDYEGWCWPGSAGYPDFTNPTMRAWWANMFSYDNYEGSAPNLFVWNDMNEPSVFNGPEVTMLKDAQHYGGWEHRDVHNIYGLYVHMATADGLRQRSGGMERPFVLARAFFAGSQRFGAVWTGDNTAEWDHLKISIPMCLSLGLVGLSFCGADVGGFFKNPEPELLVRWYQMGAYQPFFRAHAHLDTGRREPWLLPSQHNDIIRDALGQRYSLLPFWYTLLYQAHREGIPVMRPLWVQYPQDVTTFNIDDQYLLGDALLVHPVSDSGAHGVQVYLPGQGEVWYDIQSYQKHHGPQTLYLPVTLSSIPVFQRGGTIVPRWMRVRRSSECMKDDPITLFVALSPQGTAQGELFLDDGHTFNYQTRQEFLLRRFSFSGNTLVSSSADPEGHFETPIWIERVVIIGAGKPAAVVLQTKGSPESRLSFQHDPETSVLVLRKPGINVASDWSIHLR
Description: intact cells treated, residual activity in lysate with 4MU-alpha-D-glucopyranoside. Format: cell-based. The following applies: 24 h treatment of intact HEK293T cells, assay pH 7.0.

For assay [1], the target named is T2, recombinant human GBA (rGBA, imiglucerase) (Homo sapiens, UniProt P04062, R534H).
T2 construct: gene GBA1; imiglucerase (Sanofi Genzyme), mature secreted enzyme
T2 sequence (P04062 40-536 R534H): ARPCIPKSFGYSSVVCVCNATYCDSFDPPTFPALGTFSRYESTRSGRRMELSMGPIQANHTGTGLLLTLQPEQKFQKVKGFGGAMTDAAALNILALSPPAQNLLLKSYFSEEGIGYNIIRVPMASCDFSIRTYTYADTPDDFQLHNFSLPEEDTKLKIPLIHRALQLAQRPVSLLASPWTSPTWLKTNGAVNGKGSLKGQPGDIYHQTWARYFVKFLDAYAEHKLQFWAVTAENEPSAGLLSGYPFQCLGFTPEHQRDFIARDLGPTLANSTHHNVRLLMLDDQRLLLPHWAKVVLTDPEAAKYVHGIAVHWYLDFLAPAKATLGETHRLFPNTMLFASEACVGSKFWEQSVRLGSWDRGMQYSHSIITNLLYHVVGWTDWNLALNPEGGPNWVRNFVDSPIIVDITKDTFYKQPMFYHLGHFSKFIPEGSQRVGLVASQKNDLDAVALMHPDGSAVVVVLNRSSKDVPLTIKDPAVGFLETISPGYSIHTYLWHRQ
Description: residual activity, fluorogenic 4MU-glucoside assay. Type of assay: biochemical. The following applies: covalent, irreversible, 180 min preincubation, pH 5.2, 37 °C, 0.2% taurocholate, 0.1% Triton X-100, 3.75 mM 4MU-beta-D-glucopyranoside. The text has this: residual activity, fluorogenic 4MU-glucoside assay on recombinant human GBA (rGBA, imiglucerase)

Assay [2] deals with T3, GUSB (lysosomal beta-glucuronidase) (Homo sapiens, UniProt P08236).
T3 construct: endogenous enzyme in HEK293T cells (GBA2-expressing line)
T3 sequence (P08236 23-651): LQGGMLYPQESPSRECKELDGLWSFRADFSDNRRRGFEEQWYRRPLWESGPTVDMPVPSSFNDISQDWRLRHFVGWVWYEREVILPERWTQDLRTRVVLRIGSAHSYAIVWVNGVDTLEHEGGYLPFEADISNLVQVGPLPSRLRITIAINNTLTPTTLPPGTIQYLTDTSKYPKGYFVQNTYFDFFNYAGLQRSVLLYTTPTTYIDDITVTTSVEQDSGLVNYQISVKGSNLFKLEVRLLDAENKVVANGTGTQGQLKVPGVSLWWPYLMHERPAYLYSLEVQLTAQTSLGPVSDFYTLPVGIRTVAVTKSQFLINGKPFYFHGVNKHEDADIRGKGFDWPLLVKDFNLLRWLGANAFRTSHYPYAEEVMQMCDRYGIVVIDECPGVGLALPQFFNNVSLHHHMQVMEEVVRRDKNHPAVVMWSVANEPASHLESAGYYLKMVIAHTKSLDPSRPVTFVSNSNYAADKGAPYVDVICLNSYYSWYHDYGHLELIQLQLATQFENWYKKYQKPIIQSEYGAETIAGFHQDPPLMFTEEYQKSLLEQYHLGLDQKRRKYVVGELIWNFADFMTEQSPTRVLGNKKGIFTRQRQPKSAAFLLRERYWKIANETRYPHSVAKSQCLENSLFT
Description: intact cells treated, residual activity in lysate with 4MU-beta-D-glucuronide. Type of assay: cell-based. The following applies: 24 h treatment of intact HEK293T cells, assay pH 5.0.

[3] abbreviates: covalent, read-out: CBE / Enz. assay.

`OC1C(O)C(O)C2OC2C1O` (stereo not drawn) [compound 1, conduritol B epoxide]: the figures for the IC50 (on GANAB (setting [3]); in assay [1] (read-out: CBE / Enz. assay); in assay [2] (setting [3])) were 1580 µM, 4.28 µM and 607 µM, respectively.
For the molecule `OC[C@@H]1[C@@H](O)[C@H](O)[C@@H](O)[C@@H]2O[C@H]12` [compound 2, cyclophellitol], the IC50 was more than 10 µM at GANAB (read-out: apparent IC50), 0.03 µM in assay [1] (read-out: CP / Enz. assay) and more than 10 µM in assay [2] (read-out: apparent IC50).
